This data set deals with CCRIS mutagenicity, Ames/micronucleus/aberration tests. Nature of the data set: CCRIS mutagenicity studies.
Where [1] appears, read: Test System: AMES SALMONELLA TYPHIMURIUM, Strain/Indicator: TA98, Metabolic Activation: NONE, Method: PREINCUBATION
The mark [2] stands for this setting: Test System: AMES SALMONELLA TYPHIMURIUM, Strain/Indicator: TA98, Metabolic Activation: RAT LIVER S-9, PCB, Method: PREINCUBATION
Where [3] appears, read: Test System: AMES SALMONELLA TYPHIMURIUM, Strain/Indicator: TA100, Metabolic Activation: NONE, Method: PREINCUBATION
[4] abbreviates: Test System: AMES SALMONELLA TYPHIMURIUM, Strain/Indicator: TA100, Metabolic Activation: RAT LIVER S-9, PCB, Method: PREINCUBATION
Setting [5] is: Test System: AMES SALMONELLA TYPHIMURIUM, Strain/Indicator: TA104, Metabolic Activation: NONE, Method: PREINCUBATION
[6] abbreviates: Test System: E.COLI, Strain/Indicator: WP2 UVRA, Metabolic Activation: NONE, Method: PREINCUBATION
Setting [7] is: Test System: E.COLI, Strain/Indicator: WP2 UVRA, Metabolic Activation: RAT LIVER S-9, PCB, Method: PREINCUBATION
[8] abbreviates: Test System: AMES SALMONELLA TYPHIMURIUM, Strain/Indicator: TA98, Metabolic Activation: NONE, Method: STANDARD PLATE.
Where [9] appears, read: Test System: AMES SALMONELLA TYPHIMURIUM, Strain/Indicator: TA100, Metabolic Activation: NONE, Method: STANDARD PLATE.
Where [10] appears, read: Test System: AMES SALMONELLA TYPHIMURIUM, Strain/Indicator: TA98, Metabolic Activation: RAT, LIVER, S-9, PHENOBARBITAL, Method: STANDARD PLATE.
Setting [11] is: Test System: AMES SALMONELLA TYPHIMURIUM, Strain/Indicator: TA100, Metabolic Activation: RAT, LIVER, S-9, PHENOBARBITAL, Method: STANDARD PLATE.
[12] abbreviates: Test System: AMES SALMONELLA TYPHIMURIUM, Strain/Indicator: TA1537, Metabolic Activation: NONE, Method: STANDARD PLATE.
The mark [13] stands for this setting: Test System: AMES SALMONELLA TYPHIMURIUM, Strain/Indicator: TA1538, Metabolic Activation: NONE, Method: STANDARD PLATE.
The mark [14] stands for this setting: Test System: AMES SALMONELLA TYPHIMURIUM, Strain/Indicator: TA1538, Metabolic Activation: RAT, LIVER, S-9, PHENOBARBITAL, Method: STANDARD PLATE.
[15] abbreviates: Test System: AMES SALMONELLA TYPHIMURIUM, Strain/Indicator: TA1977, Metabolic Activation: NONE, Method: STANDARD PLATE.
Where [16] appears, read: Test System: AMES SALMONELLA TYPHIMURIUM, Strain/Indicator: TA1977, Metabolic Activation: RAT, LIVER, S-9, PHENOBARBITAL, Method: STANDARD PLATE.
The mark [17] stands for this setting: Test System: AMES SALMONELLA TYPHIMURIUM, Strain/Indicator: TA102, Metabolic Activation: NONE, Method: PREINCUBATION

Activity calls are given as the source filed them. No rule for the calls is given here.

Take `O=C(Cl)c1ccccc1Cl`: the mutagenic call runs as follows: under setting [1], “inactive; negative”; under setting [2], “active; positive”; under setting [3], “active; positive”; under setting [4], “active; positive”; under setting [5], “active; positive”; (Test System: AMES SALMONELLA TYPHIMURIUM, Strain/Indicator: TA104, Metabolic Activation: RAT LIVER S-9 PCB, Method: PREINCUBATION) “active; positive”. The mutagenic call was “inactive; negative” under setting [6] and “active; positive” under setting [7].

Regarding `O=C(/C=C/c1cccc([N+](=O)[O-])c1)c1ccccc1`, the mutagenic call under setting [8] was “inactive; negative”; the mutagenic call (Test System: AMES SALMONELLA TYPHIMURIUM, Strain/Indicator: TA98, Metabolic Activation: RAT, LIVER, S-9, AROCLOR 1254, Method: STANDARD PLATE) is “inactive; negative”; the mutagenic call under setting [9] was “inactive; negative”; the mutagenic call (Test System: AMES SALMONELLA TYPHIMURIUM, Strain/Indicator: TA100, Metabolic Activation: RAT, LIVER, S-9, AROCLOR 1254, Method: STANDARD PLATE) was “inactive; negative”.

Consider `Nc1ccc2c(c1)[nH]c1ccccc12`, for which the mutagenic call under setting [8] was “active; positive”; the mutagenic call under setting [10] is “active; positive”; the mutagenic call under setting [9] is “inactive; negative”; the mutagenic call under setting [11] is “active; positive”; the mutagenic call under setting [12] was “inactive; negative”; the mutagenic call under setting [13] is “active; positive”. Also, the mutagenic call is, setting by setting: under setting [14], “active; positive”; under setting [15], “inactive; negative”; under setting [16], “inactive; negative”.

Consider `Cc1ccc(C(=O)Cl)cc1`, for which the mutagenic call is, setting by setting: under setting [1], “inactive; negative”; under setting [2], “inactive; negative”; under setting [3], “active; positive”; under setting [4], “active; positive”; under setting [5], “active; positive”; (Test System: AMES SALMONELLA TYPHIMURIUM, Strain/Indicator: TA104, Metabolic Activation: RAT LIVER S-9, PCB, Method: PREINCUBATION) “active; positive”. Also, the mutagenic call reads like this: under setting [6], “active; positive”; under setting [7], “active; positive”.

As for `CCOC(=O)CC(C)=O`, the mutagenic call is “inactive; negative” (Test System: AMES SALMONELLA TYPHIMURIUM, Strain/Indicator: TA97, Metabolic Activation: NONE, Method: PREINCUBATION); “inactive; negative” (Test System: AMES SALMONELLA TYPHIMURIUM, Strain/Indicator: TA97, Metabolic Activation: RAT, LIVER, S-9, AROCLOR 1254, Method: PREINCUBATION); “inactive; negative” under setting [1]; “inactive; negative” (Test System: AMES SALMONELLA TYPHIMURIUM, Strain/Indicator: TA98, Metabolic Activation: RAT LIVER S-9, PHENOBARBITAL AND BETA-NAPHTHOFLAVONE, Method: PREINCUBATION); “inactive; negative” under setting [3]; “inactive; negative” (Test System: AMES SALMONELLA TYPHIMURIUM, Strain/Indicator: TA100, Metabolic Activation: RAT LIVER S-9, PHENOBARBITAL AND BETA-NAPHTHOFLAVONE, Method: PREINCUBATION). Also, the mutagenic call was “inactive; negative” under setting [17]; “inactive; negative” (Test System: AMES SALMONELLA TYPHIMURIUM, Strain/Indicator: TA102, Metabolic Activation: RAT, LIVER, S-9, AROCLOR 1254, Method: PREINCUBATION); “inactive; negative” (Test System: AMES SALMONELLA TYPHIMURIUM, Strain/Indicator: TA1535, Metabolic Activation: NONE, Method: PREINCUBATION); “inactive; negative” (Test System: AMES SALMONELLA TYPHIMURIUM, Strain/Indicator: TA1535, Metabolic Activation: RAT LIVER S-9, PHENOBARBITAL AND BETA-NAPHTHOFLAVONE, Method: PREINCUBATION); “inactive; negative” (Test System: AMES SALMONELLA TYPHIMURIUM, Strain/Indicator: TA1537, Metabolic Activation: NONE, Method: PREINCUBATION); “inactive; negative” (Test System: AMES SALMONELLA TYPHIMURIUM, Strain/Indicator: TA1537, Metabolic Activation: RAT LIVER S-9, PHENOBARBITAL AND BETA-NAPHTHOFLAVONE, Method: PREINCUBATION). Also, the mutagenic call was “inactive; negative” (Test System: AMES SALMONELLA TYPHIMURIUM, Strain/Indicator: TA1538, Metabolic Activation: NONE, Method: PREINCUBATION); “inactive; negative” (Test System: AMES SALMONELLA TYPHIMURIUM, Strain/Indicator: TA1538, Metabolic Activation: RAT LIVER S-9, PHENOBARBITAL AND BETA-NAPHTHOFLAVONE, Method: PREINCUBATION); “inactive; negative” (Test System: E.COLI, Strain/Indicator: WP2UVRA, Metabolic Activation: NONE, Method: PREINCUBATION); “inactive; negative” (Test System: E.COLI, Strain/Indicator: WP2UVRA, Metabolic Activation: RAT LIVER S-9, PHENOBARBITAL AND BETA-NAPHTHOFLAVONE, Method: PREINCUBATION).

As for `Cc1cccc2nc3c(ccc4ccccc43)cc12`, the mutagenic call runs as follows: (Test System: AMES SALMONELLA TYPHIMURIUM, Strain/Indicator: TA97A, Metabolic Activation: NONE, Method: PREINCUBATION) “active; positive”; under setting [1], “inactive; negative”; under setting [3], “inactive; negative”; under setting [17], “active; positive”.

`CC(=O)Nc1ccc2[nH]c3ccccc3c2c1[N+](=O)[O-]`: the mutagenic call was “active; positive” under setting [8]; “active; positive” under setting [10]; “inactive; negative” under setting [9]; “inactive; negative” under setting [11]; “inactive; negative” under setting [12]; “inactive; negative” (Test System: AMES SALMONELLA TYPHIMURIUM, Strain/Indicator: TA1537, Metabolic Activation: RAT, LIVER, S-9, PHENOBARBITAL, Method: STANDARD PLATE). Besides, the mutagenic call under setting [13] was “active; positive”, the mutagenic call under setting [14] was “active; positive”, the mutagenic call under setting [15] is “inactive; negative” and the mutagenic call under setting [16] was “inactive; negative”.

For the molecule `CCc1ccccc1[N+](=O)[O-]`, the mutagenic call was “inactive; negative” under setting [1]; “inactive; negative” (Test System: AMES SALMONELLA TYPHIMURIUM, Strain/Indicator: TA98, Metabolic Activation: RAT, LIVER, S-9, KANECHLOR 500, Method: PREINCUBATION); “inactive; negative” under setting [3]; “inactive; negative” (Test System: AMES SALMONELLA TYPHIMURIUM, Strain/Indicator: TA100, Metabolic Activation: RAT, LIVER, S-9, KANECHLOR 500, Method: PREINCUBATION).

These data come from PubChem BioAssay AID1259407 (Chemical Carcinogenesis Research Information System (CCRIS), 2018).
